In US9381169B2, “Pharmaceutical composition and use of the pharmaceutical composition for the treatment, prophylaxis or prevention of neoplastic diseases in humans and animals” (UNIVERSIDADE BANDEIRANTE DE SÃO PAULO—ACADEMIA PAULISTA …, priority 2009, dated 2016):
Read-outs that look alike come from different tables or passages of the source.

Key:
[1] = cited from earlier work
Ehrlich tumor [2] = assay: Number of renal and splenic metastases, Ehrlich tumor; assay type: in vivo; details: Balb-c mice
Description: As an experimental model of mammary adenocarcinoma, we used the Ehrlich tumor in mice of the Balb-c strain, with approximately 2 months of age and weighing between 20 to 25 grams. The maintenance of the tumor in vivo was performed by intraperitoneal administration of 10^7 cells every seven days.
Paclitaxel and etoposide were administered at concentrations of 15 μM/Kg and 3.73 mM/kg, respectively, by intraperitoneal slow infusion in treatment regimens described in the literature on days 1, 5 and 10, after the 7th day of tumor implantation. The compounds were administered separately.

Ehrlich tumor [3] = details: Balb-c mice, intraperitoneal from day 7 after implant, DM-1 1.6 nM/kg daily, paclitaxel 15 μM/Kg, etoposide 3.73 mM/kg on days 1, 5, 10
Source text: (§7) We used 50 mice of the Balb-c strain, females and males, with approximately 25 g, aged approximately 6 to 8 weeks, with diet and water ad libitum, that were divided into 5 groups:
CONTROL GROUP—10 animals implanted with tumor, which after 7 days of application, received daily intraperitoneal doses of saline 0.9%;
Paclitaxel-treated group—10 animals implanted with tumor, which after 7 days of application, received intraperitoneal doses of paclitaxel chemotherapy in the 1st, 5th and 10th days of treatment;
Etoposide-treated group—10 animals implanted with tumor, which after 7 days of application, received intraperitoneal doses of etoposide chemotherapy in the 1st, 5th and 10th days of treatment; […]
Tumor growth in mice was measured by the dimensions on the longitudinal and transverse abdominal cavity, with the aid of a digital caliper. […] The mean area (A), mass (M) and tumor burden (C) were calculated using the following equations, respectively: A=nπ2; L2×T=M/2 (where L is the measured longitudinal and transverse extent of the T waist circumference).

B16F10 melanoma [4] = assay: Survival rate, B16F10 melanoma; assay type: in vivo, mice
Description: (§1) Groups of mice of the C57Bl/6J strain were injected subcutaneously dorsally with 5×10^4 B16F10 melanoma tumor cells under sterile conditions. The animals were observed every 72 hours and tumor growth monitored until the average diameter of […].
(§2) Paclitaxel-treated group—10 animals with B16F10 melanoma tumor, which after the 11th day of tumor implantation, received intraperitoneal doses of paclitaxel chemotherapy in […] of treatment;
(§3) After 14 days, the animals received implantation of B16F10 melanoma cells and received no treatment until the end of the experiment.
(§4) Paclitaxel was administered at a concentration of 15 μM/Kg, via intraperitoneal slow infusion, the treatment regimens described in the literature on days 1, 5 and 10, after the 7th day of tumor implantation. The compounds were administered separately.

[5] = Hematologic evaluation (erythrocytes, leukocytes, platelets), B16F10 melanoma; assay type: in vivo, mice; details: for platelet counts during treatment compared to the control group: B16F10 melanoma mice
Description: (§5) The compounds were administered separately.
The blood of animals with B16F10 melanoma tumor was harvested in the 6th and 14th day during treatment with the compound DM-1 and prior to the inoculation of B16F10 cells. In the charts, collections for the day 6 were named 1A, while those relating to day 14 were named 2A. After implantation, tumor blood were collected in the second, sixth and tenth days of treatment (after treatment with DM-1) in all groups of animals, and these collections were named 1B and 2B and 3B, respectively.

B16F10 melanoma cells = assay: Cell cycle phases and apoptosis of dorsal tumor cells (propidium iodide, FACSCalibur); assay type: in vivo, mice
Description: The cells were then frozen and kept in liquid nitrogen. After incubation with propidium iodide, the analysis was performed on a FACSCalibur cytometer. The results were expressed as mean percentage of cells in different phases of the cell cycle, debris and necrosis, apoptosis (sub-G1), quiescent non-proliferating cells G0/G1, S phase—synthesis of genetic material and G2/M at the beginning of cell division.

B16F10 melanoma [6] = assay: Tumor growth (dorsal tumor area), B16F10 melanoma; assay type: in vivo; details: C57Bl/6J mice
Description: as §1
Control group—10 animals with B16F10 melanoma tumor, which after the 11th day of tumor implantation, received daily intraperitoneal doses of saline 0.9%;
as §2, §3, §4

B16F10 melanoma [7] = assay: Internal metastases, B16F10 melanoma; assay type: in vivo, mice
Description: as §1, §2
(§6) Group pre-treated with the DM-1 compound prior to the implant of B16F10 melanoma cells—10 animals were treated with daily doses of the compound DM-1 for 14 days before implantation of tumor cells. After 14 days, the animals received implantation of B16F10 melanoma cells and received no treatment until the end of the experiment.
as §6, with “cells and post-treated with DM-1 compound—10” for “cells—10”, “continued to receive daily” for “received no”, “with” for “until”, “compound DM-1 for another 14 days.” for “end of the experiment.”
as §5

tumor cell lines = details: PCT/BR2007/000175 and PI0602640-0; cited from earlier work
Ehrlich tumor [8] = assay: Macroscopic spleen volume, Ehrlich tumor; details: all experimental protocols with DM-1
Description: as §7
The spleens of animals from all experimental groups were analyzed for the display of nodes and metastases.

[9] = test system: polychromatic erythrocytes; details: Wistar rats; for Observed frequencies of polychromatic erythrocytes with micronuclei in 1000 polychromatic erythrocytes: single intraperitoneal dose, cyclophosphamide 190 μM/Kg, DM-1 8 hours before cyclophosphamide
Source text: We used animals of the Wistar strain, males and females, with approximately 90 days old and weighing between 250 and 300 grams, maintained with water and food “ad libitum” and in accordance with the rules and procedures regarding the use of laboratory animals. The animals were divided into four groups:
Negative control group—6 animals treated with a single dose of 0.7% saline solution.
Group treated with cyclophosphamide (positive control)—6 animals treated with a single dose of cyclophosphamide chemotherapy.
In all tests was administered 1 mL of the compound of interest intraperitoneally. […] Cyclophosphamide was administered at a concentration of 190 μM/Kg. The compounds were administered separately. At the end of the experiment (24 and 48 hours), animals were euthanized by deep general anesthesia induced by a lethal dose of sodium tiopentabarbital (CRMV, 2008).
This study allowed us to analyze the action of mutagenic compounds under study. Mutagenic compounds when administered in experimental animals cause changes in chromatin that can be identified by the formation of a mass within the nucleus called the micronucleus. The emergence of this mass is quantified and analyzed for their proportion to the capacity of a given drug or not to be mutagenic.
For micronucleus study we used the technique reported by Ribeiro et al. (Environmental Mutagenesis. Ulbra Publisher. Canoas: 1st edition, 2003.) For the staining of slides was used the technique described by Rabello-Gay et al. Apud SILVA, J. C. of; SILVA, S. of C. Evaluation of possible genotoxic effects of Gergilim (Sesamum indicum L., 2003).
In the test, the effect of the chemical agent is observed in anucleate polychromatic erythrocytes (ECPs), which have relatively short life span, so that it contains any micronucleus that was generated as a result of recent chromosomal damage. For the staining of slides was used Giemsa stain diluted in phosphate buffer at pH 6.8, in the ratio 1:10, for a period of 15 minutes. After staining, the slides were washed in distilled water to remove excess dye. To read the slides used an optical microscope and perform counting and analysis of 1000 polychromatic erythrocytes per slide, considering the frequency of micronucleated polychromatic erythrocytes.
The analysis was performed with cells increases 40× and 100× for the visualization of general morphology of the smears negative control group (FIG. 22), the groups treated with the compound DM1 and their polychromatic erythrocytes (FIGS. 23, 24 and 25). 1000 cells were analyzed per animal for the groups treated with DM1, negative control and cyclophosphamide for a total of 40,000 cells. The photodocumentation polychromatic erythrocytes was obtained by digital AVsoft. The group treated with cyclophosphamide was the positive control of the technique (FIG. 27).
The results were subjected to statistical analysis, the ANOVA test of variance followed by Tukey-Kramer multiple comparisons (parametric data) and the significance level of 5%, i.e., the probability P<0.05).

[10] = group pre and post treated with DM-1

In the case of `C[C@@H](CN1CC(=O)NC(=O)C1)N1CC(=O)NC(=O)C1` [Dexrazoxane], the “rates of cell damage” value ([1]; as co-adjuvant: dexrazoxane with etoposide, amifostine with cisplatin or paclitaxel) is given as over 45%.
For `COc1cc([C@@H]2c3cc4c(cc3[C@@H](O[C@@H]3O[C@@H]5CO[C@@H](C)O[C@H]5[C@H](O)[C@H]3O)[C@H]3COC(=O)[C@H]23)OCO4)cc(OC)c1O` [etoposide], the “decrease of metastases in kidney” value (Ehrlich tumor [2]) was 10%, the “decrease of metastases in spleen” value (Ehrlich tumor [2]) was 30% and the “median values of tumor area” value (Ehrlich tumor [3]) was 8.6±1.0 cm^2.
For `CC(=O)O[C@H]1C(=O)[C@@]2(C)[C@H]([C@H](OC(=O)c3ccccc3)[C@]3(O)C[C@H](OC(=O)[C@H](O)[C@@H](NC(=O)c4ccccc4)c4ccccc4)C(C)=C1C3(C)C)[C@]1(OC(C)=O)CO[C@@H]1C[C@@H]2O` [paclitaxel, reference compound], the “decrease of metastases in kidney” value (Ehrlich tumor [2]) was 30%, the “decrease of metastases in spleen” value (Ehrlich tumor [2]) was 50% and the “increase of survival rate” value (B16F10 melanoma [4]; treated after tumor implantation) was “no significant changes”. For the same compound, the “platelet counts during treatment compared to the control group” value [5] was “increase”, the “proportion of cells killed by necrosis” value (B16F10 melanoma cells; compared to control and DM-1 groups) was “significant increase” and the tumor area (B16F10 melanoma [6]; B16F10, treated after tumor implantation, paclitaxel 15 μM/Kg i.p., DM-1 0.83 nM/kg daily) was 9.4 cm^2. The “median values of tumor area” value (Ehrlich tumor [3]) was 11.4±1 cm^2.
For `COc1cc(C=CC(=O)C=Cc2ccc(O)c(OC)c2)ccc1[O-].[Na+]` [DM-1, sodium 4-[5-(4-hydroxy-3-methoxy-phenyl)-3-oxo-penta-1,4-dienil]-2-methoxy-phenolate], the “formation of lung and liver metastases” value (B16F10 melanoma [7]; [10]) was “inhibition”, the “formation of lung and liver metastases” value (B16F10 melanoma [7]; group pre-treated with DM-1) was “inhibition” and the “increase of survival rate” value (B16F10 melanoma [4]; group pre- and post-treated with DM-1) was 30%. For the same compound, the “increase of survival rate” value (B16F10 melanoma [4]; group pre-treated with DM-1) was 50%, the “platelet counts during treatment compared to the control group” value [5] was “significant reductions” and the “erythrocytes (anemia)” value ([5]; mice treated with DM-1) was “does not induce anemia”. For the same compound, the antiproliferative activity (tumor cell lines) was “significant”, the “percentage of cells in sub-G1 (apoptotic) phase” value (B16F10 melanoma cells; [10]) was “increased significantly” and the “percentage of cells in sub-G1 (apoptotic) phase” value (B16F10 melanoma cells; group pre-treated with DM-1) was “increased significantly”. For the same compound, the “proportion of quiescent cells in G0/G1 phase” value (B16F10 melanoma cells; protocols of treatment with DM-1) was “reduce”, the “dorsal tumor area, average values” (B16F10 melanoma [6]; pre and post treated with DM-1 0.83 nM/kg daily, 14 days before and 14 days after B16F10 implant) was 7.3±1.3 cm^2 and the “dorsal tumor area, average values” (B16F10 melanoma [6]; pretreated with DM-1 0.83 nM/kg daily for 14 days before B16F10 implant, no later treatment) was 6.5±1.7 cm^2. For the same compound, the “immunosuppression in animals with Ehrlich ascites tumor” value (Ehrlich tumor [8]) was “suppressed”, the “Observed frequencies of polychromatic erythrocytes with micronuclei in 1000 polychromatic erythrocytes” value (“Observed frequencies” for short) ([9]; DM-1 140 μM/Kg, 24 Hours) was 2.4 ± 0.5 and the “Observed frequencies” value ([9]; DM-1 140 μM/Kg, 48 Hours) was 2.2 ± 0.5. For the same compound, the “micronuclei in bone marrow smears (in words)” value ([9]; DM-1 140 μM/Kg, alone or 8 hours before cyclophosphamide 190 μM/Kg) was “not found significant changes”.
In the case of `O=P1(N(CCCl)CCCl)NCCCO1` (centres unmarked) [Cyclophosphamide, cyclophosphamide], the “cells with micronuclei found in the group” value ([9]; bone marrow smears) is reported as “more than 200 cells”, the “Observed frequencies” value ([9]; DM-1 140 μM/Kg, 24 Hours) is reported as 36.5 ± 1.0 and the “Observed frequencies” value ([9]; DM-1 140 μM/Kg, 48 Hours) is reported as 35.5 ± 1.0. For the same compound, the “frequency of micronucleated polychromatic erythrocytes in 1000 cells” value ([9]; positive control group) was 36 /1000.
In the case of `O=S(=O)(O)CCS` [Mesna], the antimutagenic action ([1]; in combination with paclitaxel) is given as “moderate”.
